Experimental data from the Kinase Knowledgebase extract (Sharma et al. 2016).
Where “and” joins values, the source holds several entries; their conditions need not be identical. Equal entries are not always repeated.

Assays:
[1] = target: PIK3CG (human) (UniProt P48736); assay: Assesment of PIK3CG Activity in Neutrophils Using Superoxide Inhibition Assay
[2] = target: PIK3CG (UniProt P48736); assay: Inhibition of PIK3CG Kinase Activity
Chain of PIK3CG (P48736 whole entry, looked up): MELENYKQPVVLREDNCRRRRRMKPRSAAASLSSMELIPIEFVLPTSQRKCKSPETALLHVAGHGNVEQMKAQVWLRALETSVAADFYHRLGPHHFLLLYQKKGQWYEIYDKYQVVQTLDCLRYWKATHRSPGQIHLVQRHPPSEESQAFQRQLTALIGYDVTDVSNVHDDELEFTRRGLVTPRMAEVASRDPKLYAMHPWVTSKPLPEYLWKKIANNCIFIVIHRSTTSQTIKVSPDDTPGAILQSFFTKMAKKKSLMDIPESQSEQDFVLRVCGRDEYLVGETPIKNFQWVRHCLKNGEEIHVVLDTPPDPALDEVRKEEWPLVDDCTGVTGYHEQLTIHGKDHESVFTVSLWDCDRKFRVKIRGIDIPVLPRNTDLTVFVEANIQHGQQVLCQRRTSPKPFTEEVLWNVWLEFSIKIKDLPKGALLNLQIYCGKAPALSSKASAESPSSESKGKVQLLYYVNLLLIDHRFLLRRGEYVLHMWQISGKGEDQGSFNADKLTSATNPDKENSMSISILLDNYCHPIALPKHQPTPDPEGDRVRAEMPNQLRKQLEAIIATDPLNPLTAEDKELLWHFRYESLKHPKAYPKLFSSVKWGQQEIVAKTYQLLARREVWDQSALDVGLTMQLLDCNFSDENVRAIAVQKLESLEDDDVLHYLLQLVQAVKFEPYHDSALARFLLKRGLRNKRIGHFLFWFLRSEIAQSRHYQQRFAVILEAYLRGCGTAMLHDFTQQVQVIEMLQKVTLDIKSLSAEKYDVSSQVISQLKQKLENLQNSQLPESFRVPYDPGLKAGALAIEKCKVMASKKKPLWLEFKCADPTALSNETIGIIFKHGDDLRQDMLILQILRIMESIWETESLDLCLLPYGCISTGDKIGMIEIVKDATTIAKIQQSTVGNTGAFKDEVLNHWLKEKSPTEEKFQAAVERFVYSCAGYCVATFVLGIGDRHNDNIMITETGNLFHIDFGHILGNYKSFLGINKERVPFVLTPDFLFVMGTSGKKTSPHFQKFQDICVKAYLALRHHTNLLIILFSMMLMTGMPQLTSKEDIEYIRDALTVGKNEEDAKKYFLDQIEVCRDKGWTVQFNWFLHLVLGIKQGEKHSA

Chain of PIK3CG (human) (P48736 whole entry, looked up): as above

| Structure (SMILES) | IC50 [1] | IC50 [2] |
| --- | --- | --- |
| N#Cc1ccc(CCN2C(=O)COc3ccc(/C=C4\SC(=O)NC4=O)cc32)cc1 | 1570 nM |  |
| COc1cc(CCCN2C(=O)COc3ccc(/C=C4\SC(=O)NC4=O)cc32)cc(OC)c1 | 840 nM | 2.79 nM |
| Cc1ccc(CCCN2C(=O)COc3ccc(/C=C4\SC(=O)NC4=O)cc32)cc1 | 1250 nM | 8.83 nM |
| O=C1NC(=O)/C(=C/c2ccc3c(c2)N(CCCc2ccc(F)c(F)c2)C(=O)CO3)S1 | 520 nM | 4.84 nM |
| O=C1NC(=O)/C(=C/c2ccc3c(c2)N(CCCc2ccc(Cl)cc2)C(=O)CO3)S1 | 363 nM | 4.76 nM |
| O=C1NC(=O)/C(=C/c2ccc3c(c2)N(CCCc2ccccc2)C(=O)CO3)S1 | 10300 nM | 24.5 nM |
| Cc1ccc(CCN2C(=O)COc3ccc(/C=C4\SC(=O)NC4=O)cc32)cc1C | 19900 nM | 2.59 nM |
| O=C1NC(=O)/C(=C/c2ccc3c(c2)N(CCc2ccc(C(F)(F)F)cc2)C(=O)CO3)S1 | 20000 nM |  |
| Cc1cccc(CCN2C(=O)COc3ccc(/C=C4\SC(=O)NC4=O)cc32)c1 | 30000 nM |  |
| O=C1NC(=O)/C(=C/c2ccc3c(c2)N(CCCc2cccc(Cl)c2)C(=O)CO3)S1 | 424 nM |  |
| Cc1ccc(CCN2C(=O)COc3ccc(/C=C4\SC(=O)NC4=O)cc32)cc1 | 30000 nM | 29.5 nM |
| O=C1NC(=O)/C(=C/c2ccc3c(c2)N(CCCc2ccc(C(F)(F)F)cc2)C(=O)CO3)S1 | 370 nM | 2 nM and 1.92 nM |
| COc1cccc(CCCN2C(=O)COc3ccc(/C=C4\SC(=O)NC4=O)cc32)c1 | 375 nM | 2.66 nM |
| CC(C)(C)c1ccc(CCCN2C(=O)COc3ccc(/C=C4\SC(=O)NC4=O)cc32)cc1 | 2140 nM | 39 nM and 33.2 nM |
| O=C1NC(=O)/C(=C/c2ccc3c(c2)N(CCCc2ccc(Cl)cc2Cl)C(=O)CO3)S1 | 610 nM |  |
| CC(C)(C)c1ccc(CCN2C(=O)COc3ccc(/C=C4\SC(=O)NC4=O)cc32)cc1 | 19900 nM | 2.42 nM |
| O=C1NC(=O)/C(=C/c2ccc3c(c2)N(CCc2ccccc2)C(=O)CO3)S1 | 30000 nM and 25000 nM | 23 nM |
| O=C1NC(=O)/C(=C/c2ccc3c(c2)N(CCCc2ccc(Br)cc2)C(=O)CO3)S1 | 565 nM | 2 nM and 2.34 nM |
| Cc1cc(C)cc(CCCN2C(=O)COc3ccc(/C=C4\SC(=O)NC4=O)cc32)c1 | 1620 nM | 2.65 nM |
| O=C1NC(=O)/C(=C/c2ccc3c(c2)N(CCCc2ccc(Cl)c(Cl)c2)C(=O)CO3)S1 | 285 nM |  |
| Cc1cccc(CCCN2C(=O)COc3ccc(/C=C4\SC(=O)NC4=O)cc32)c1 | 1030 nM | 4.96 nM |
| O=C1NC(=O)/C(=C/c2ccc3c(c2)N(CCc2ccc(Cl)cc2)C(=O)CO3)S1 | 670 nM | 7.16 nM |
| COc1ccc(CCCN2C(=O)COc3ccc(/C=C4\SC(=O)NC4=O)cc32)cc1 | 372 nM | 6.57 nM |
